Experimental findings from patent US12297197B2, “Pyrazolopyridine compound as RET inhibitor and application thereof” (GUANGZHOU BAIYUNSHAN PHARMACEUTICAL HOLDINGS CO., LTD. …, priority 2019, dated 2025) are described below.

In series [1] the test system is Ba/F3-CCDC6-RET cell allograft tumor model. As to the kind of experiment: Tumor growth inhibition (TGI) in Ba/F3-CCDC6-RET cell allograft tumor model. The series is classed as in vivo, BALB/c nude female mouse. The method, then: Ba/F3-CCDC6-RET cell line was cultured in a 1640 medium (Biological Industries)+10% fetal bovine serum (BI)+1% Penicillin Streptomycin solution (Coring, USA) at 37° C. in a 5% CO2 incubator, with passage treatment twice a week Cells were collected when the cell saturation was 80%-90%, subjected to cell counting, and then inoculated subcutaneously into the right armpit of each BALB/c nude female mouse (6-8 weeks old). After inoculation, tumor growth was observed day by day. When the average tumor volume reached 165.77 mm^3, mice were randomly divided into groups according to the tumor volume, with 6 mice in each group, and then the mice were administrated with drug.
Health status and death situation of the mice were checked every day. In addition, the mice were examined regularly, including tumor growth, activity ability, diet, weight, eyes, hair and other abnormal behaviors, and tumor volume and weight were measured twice a week (on Tuesday and Friday).
Inhibitory effects of the compounds on tumor growth were evaluated according to the relationship between tumor volume and time. The tumor volume was measured by a vernier caliper, with the formula being TV=0.5a×b^2, wherein “a” was the long diameter of the tumor and “b” was the short diameter of the tumor. TGI was calculated by the difference between the median tumor volume of mice in the solvent group and the median tumor volume of mice in the drug group, and expressed as the percentage of median tumor volume in the solvent control group.
TGI was calculated by the following formula: TGI(TGI(%)=[1−(T23−T0)/(V23−V0)]×100)
Data were expressed by Means±Standard Error (Mean±SE), unless otherwise stated. The one way ANOVA test was used to compare whether the difference between the tumor volume in the treatment group and the tumor volume in the control group is statistically significant. P<0.05 was considered as statistically significant. The 5% DMSO+10% polyoxyl 15 hydroxystearate (Solutol)+85% 120 was used as the negative control.

The next series concerns the target RET kinase (Homo sapiens, UniProt P07949). As to the kind of experiment: In-vitro enzyme activity test, RET kinase. The format is biochemical. The settings on record: ATP 20 μM; 10 concentrations 3 μM to 0.152 nM. On the procedure:
(§1) The enzyme activity was detected by a Z′-LYTE™ kinase test, and inhibitory effects of the compounds onRET and RET (V804M) kinases were evaluated with an ICs value of each compound as an index.
(§2) The compounds used for RET and RET (V804M) kinase tests were diluted 3-fold, in 10 concentration gradients ranging from 3 μM to 0.152 nM; and the content of DMSO in detection reaction was 1%.
(§3) Basic reaction buffer, 20 mM 4-(2-hydroxyethyl)piperazine-1-ethanesulfonic acid (Hepes) buffer (pH 7.5), 10 mM MgCl2. 1 mM 1,2-bis[2-[bis(carboxymethyl)amino]ethoxy]ethane (EGTA), 0.02% polyoxyethylene lauryl ether (Brij35), 0.02 mg/mL bovine serum albumin, 0.1 mM of Na3VO4, 2 mM dithiothreitol (DTT) and 1% DMSO.
(§4) The compounds to be tested were dissolved in a 100% DMSO system to be diluted to 10 mM for further use. The solution was diluted by using Integra Viaflo Assist.
(§5) Test conditions: concentrations of RET kinase, peptide substrate CHKtide and adenosine triphosphate (ATP) were […], 1000 μM and 20 μM, respectively, and concentrations of RET (V804M) kinase, substrate peptide and ATP were […], 1000 μM and 30 μM, respectively.
(§6) Reaction process: compound solutions of different concentrations were added to a kinase/peptide solution prepared according to the test conditions, the obtained solution was incubated at room temperature for 20 minutes, and then 33P-ATP of corresponding concentrations were added, and the obtained solution was incubated at room temperature for 120 minutes. The radioactivity was detected by a filter-binding method.
(§7) The reaction was terminated by adding phosphoric acid (concentration, 0.5%) into a kinase reaction solution, and plate reading was carried out with an Envision instrument.
(§8) Data were converted into phosphorylation rate and inhibition rate, and the parametric curve was fitted by using GraphPad Software to obtain IC50 data of the compounds.

Series [2] can be described thus: Pharmacokinetic evaluation in mice (IV and PO). The format is in vivo. The conditions noted are these: mouse, plasma, female Balb/c mice; for bioavailability: peros (PO) 2 mg/kg vs IV 0.2 mg/kg, read-out: F (bioavailability). On the procedure:
Experiment process: 0.1 mg/ml of the clear solution of each test compound in the corresponding solvents (as shown in Table 9) was injected into female Balb/c mice (fasting overnight. 7-9 weeks old) via the tail vein at a dose of […]. Blood samples ([…]) were collected from the jugular vein or the tail vein at the following time points: 0.0833 hour, 0.25 hour, 0.5 hour, 1.0 hour, 2.0 hours, 4.0 hours. 8.0 hours and 24 hours after intravenous administration. 0.2 mg/ml of the test compounds suspended in the corresponding solvents (as shown in Table 9) were given to the female Balb/c mice (fasting overnight. 7-9 weeks old) by gavage at a dose of 2 mg/kg. Blood samples (30 μL) were collected from the jugular vein or the tail vein of the female Balb/c mice at the following time points: 0.0833 hour, 0.25 hour, 0.5 hour, 1.0 hour, 2.0 hours, 4.0 hours, 6.0 hours, 8.0 hours and 24 hours after oral administration. The blood samples were placed in anticoagulant tubes containing EDTA-K2, and centrifuged to separate plasma. The plasma concentration was determined by LC-MS/MS, and a WinNonlin™ Version 6.3 pharmacokinetic software (Pharsight, Mountain View, CA) was used to calculate related pharmacokinetic parameters by a linear-log trapezoidal method in a non-compartmental model. [table]

For another series, the target named is RET (V804M) kinase (Homo sapiens, UniProt P07949, V804M). The series can be described thus: In-vitro enzyme activity test, RET (V804M) kinase. The series is classed as biochemical. The conditions noted are these: ATP 30 μM; 10 concentrations 3 μM to 0.152 nM. On the procedure:
as §1, §2, §3, §4, §5, §6, §7, §8

[3] abbreviates: 10 mg/kg (D0-D13)/5 mg/kg (D14-D17)/2,5 mg/kg (D18-D28) BID.

Sequence of RET kinase (P07949 29-1114): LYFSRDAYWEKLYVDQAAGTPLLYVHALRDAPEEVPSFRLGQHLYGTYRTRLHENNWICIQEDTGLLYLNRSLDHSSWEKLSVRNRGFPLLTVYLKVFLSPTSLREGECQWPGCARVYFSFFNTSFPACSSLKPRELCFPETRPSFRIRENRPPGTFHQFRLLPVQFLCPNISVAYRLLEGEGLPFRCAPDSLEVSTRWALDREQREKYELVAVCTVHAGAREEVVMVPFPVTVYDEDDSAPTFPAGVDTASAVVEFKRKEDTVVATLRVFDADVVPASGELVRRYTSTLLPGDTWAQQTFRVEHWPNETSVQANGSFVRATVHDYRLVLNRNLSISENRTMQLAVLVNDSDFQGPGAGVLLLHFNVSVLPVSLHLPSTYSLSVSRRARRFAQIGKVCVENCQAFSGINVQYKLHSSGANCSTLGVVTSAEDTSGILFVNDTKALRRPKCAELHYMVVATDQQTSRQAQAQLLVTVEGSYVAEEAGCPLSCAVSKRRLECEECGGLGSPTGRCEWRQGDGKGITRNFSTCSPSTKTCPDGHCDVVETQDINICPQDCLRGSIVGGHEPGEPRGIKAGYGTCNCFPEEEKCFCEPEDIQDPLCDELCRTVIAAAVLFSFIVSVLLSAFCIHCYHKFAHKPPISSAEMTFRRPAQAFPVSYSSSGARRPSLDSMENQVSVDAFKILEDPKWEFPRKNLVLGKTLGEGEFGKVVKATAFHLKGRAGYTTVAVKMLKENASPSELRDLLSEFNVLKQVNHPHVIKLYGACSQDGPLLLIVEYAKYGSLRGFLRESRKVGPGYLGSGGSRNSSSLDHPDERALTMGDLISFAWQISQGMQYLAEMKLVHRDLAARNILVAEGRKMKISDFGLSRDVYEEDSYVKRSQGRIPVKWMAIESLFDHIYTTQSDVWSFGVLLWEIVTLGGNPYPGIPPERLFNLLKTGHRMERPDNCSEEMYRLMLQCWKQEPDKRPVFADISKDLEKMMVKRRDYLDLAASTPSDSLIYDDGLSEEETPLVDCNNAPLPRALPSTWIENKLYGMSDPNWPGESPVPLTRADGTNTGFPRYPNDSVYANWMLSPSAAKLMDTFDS
Sequence of RET (V804M) kinase (P07949 29-1114 V804M): as the sequence (P07949 29-1114) above, with V776M counted along it

For the molecule `COc1ccc(CN2C3CC2CN(c2ccc(-c4cc(N5CCN(C)CC5)cn5ncc(C#N)c45)cn2)C3)cn1` [Trifluoroacetate of compound 18], the “TGI% (tumor volume at Day 23 after drug administration)” value (“TGI%” for short) in series [1] (10 mg/kg (D0-D17)/5 mg/kg (D18-D28) QD) is 91%. Moreover, the IC50 (in general, the concentration that inhibits the measured activity by half) against RET kinase worked out at 0.46 nM.
As for `COc1ccc(CN2C3CC2CN(c2cnc(-c4cc(C5=CCOCC5)cn5ncc(C#N)c45)cn2)C3)cn1` [Trifluoroacetate of compound 30], the “TGI%” value in series [1] (setting [3]) amounted to 98%. For the same molecule, the bioavailability (as a rule, dose-corrected exposure relative to a reference, in per cent) in series [2] was found to be 96.4%.
With `COc1ccc(CN2C3CC2CN(c2ccc(-c4cc(N5CCC(F)(F)C5)cn5ncc(C#N)c45)cn2)C3)cn1` [Trifluoroacetate of compound 69], the “TGI%” value in series [1] (setting [3]) was 99%. The AUC(0-t) (in general, the area under the concentration-time curve up to a stated or last time point) was 3.87 µM·h in series [2] (intravenous injection (IV) 0.2 mg/kg) and 29.6 µM·h in series [2] (peros (PO) 2 mg/kg). Moreover, the clearance in series [2] (intravenous injection (IV) 0.2 mg/kg, read-out: Cl (plasma clearance)) came out at 1.3 mL/min/kg. For the same molecule, in series [2] (intravenous injection (IV) 0.2 mg/kg, read-out: T1/2 (half-life of elimination) (converted)), the half-life was 3.6 h. Besides, the Vd in series [2] (intravenous injection (IV) 0.2 mg/kg, read-out: Vdds (volume of distribution at steady state)) came out at 0.42 L/kg. In series [2], the bioavailability is 74.7%. Besides, the concentration in series [2] (peros (PO) 2 mg/kg) peaked (Cmax) at 3.63 µM. The time to peak (Tmax) (commonly the time at which the peak concentration occurs) in series [2] (peros (PO) 2 mg/kg) worked out at 4 h. The half-maximal inhibitory concentration (IC50) against RET (V804M) kinase came to 1.57 nM; against RET kinase it was 1.44 nM.
